Reference: EP3088389A1, “4-EPI-ISOFAGOMINE DERIVATIVES” (Dorphan S.A., priority 2015, dated 2016)

Columns and labels:
Beta-galactosidase [1] = biological target: T1, Beta-galactosidase (Homo sapiens, UniProt P16278); test: Inhibition of wild type beta-galactosidase activity in human peripheral blood mononuclear cell lysate (Example 3); type: biochemical
T1 construct: endogenous in cells; host or cells: human peripheral blood mononuclear cells (lysate)
T1 sequence (P16278 29-677): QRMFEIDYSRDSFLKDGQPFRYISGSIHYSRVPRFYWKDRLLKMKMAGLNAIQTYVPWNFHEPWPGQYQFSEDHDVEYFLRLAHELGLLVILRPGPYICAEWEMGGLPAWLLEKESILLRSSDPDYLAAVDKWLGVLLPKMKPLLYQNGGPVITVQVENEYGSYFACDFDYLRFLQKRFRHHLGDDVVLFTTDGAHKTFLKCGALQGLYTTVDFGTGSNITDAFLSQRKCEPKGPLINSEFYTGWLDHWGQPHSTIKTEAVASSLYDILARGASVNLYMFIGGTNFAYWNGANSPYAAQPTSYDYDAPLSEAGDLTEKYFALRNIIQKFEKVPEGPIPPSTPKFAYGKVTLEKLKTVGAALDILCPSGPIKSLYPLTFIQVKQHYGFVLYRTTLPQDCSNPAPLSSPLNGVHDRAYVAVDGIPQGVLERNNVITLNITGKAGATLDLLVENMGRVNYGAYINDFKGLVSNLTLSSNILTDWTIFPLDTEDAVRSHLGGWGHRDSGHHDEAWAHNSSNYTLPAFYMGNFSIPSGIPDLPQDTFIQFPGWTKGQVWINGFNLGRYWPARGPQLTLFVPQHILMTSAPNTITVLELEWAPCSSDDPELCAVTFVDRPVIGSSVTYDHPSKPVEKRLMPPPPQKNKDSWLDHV
Protocol: (§1) Samples of human peripheral blood mononuclear cell lysate (2 x 10^6 cells per assay) were incubated with graded concentrations of compound in 25 mM sodium phosphate, pH 7.3, supplemented with 0.5% Triton X-100 and protease inhibitors, and 0.8 mM of 4-methylumbelliferyl β-D-galactopyranoside. After an incubation of 2 hours at 37°C, the enzymatic reactions were stopped by the addition of 0.15 M glycine, pH 10.2, and fluorescence was measured at 445 nm using an excitation wavelength of 365 nm.

Beta-galactosidase [2] = biological target: T1, Beta-galactosidase; test: Inhibition of wild type beta-galactosidase activity in human peripheral blood mononuclear cell lysate (Example 1); type: biochemical; conditions: for IC50: human PBMC lysate, pH 7.3, 2 hours at 37°C
Protocol: as §1, with “compound N-nonyl-4-epi-isofagomine or 4-epi-isofagomine” for “compound”, “50” for “25”, “1%” for “0.5%”, “nm. The stock solutions of compound were at 20 mM in DMSO.” for “nm.”
The results obtained with N-nonyl-4-epi-isofagomine (squares), 4-epi-isofagomine (triangles) and DMSO vehicle (circles) are presented on figure 1.

[3] = system: mutated beta-galactosidase; test: Increase of mutated beta-galactosidase activity in fibroblasts of GM1-gangliosidosis patients (Example 6); type: cell-based, human; conditions: 4 days
Protocol: GM02439 and GM05335 fibroblasts (Coriell Institute) were cultured for 4 days in the presence or the absence of 2 µM of (2R,3R,4S,5R)-3-hydroxymethyl-2-pentylpiperidine-4,5-diol. Cells were lysed in 100 mM sodium citrate, pH 4.8, supplemented with 1% Triton X-100 and protease inhibitors. B eta-galactosidase and beta-hexosaminidase activities were then determined in the cell lysates using fluorescence and colorimetric assays, respectively. Results presented are means of 4 values obtained from independent cultures. […] Hatched and empty bars: beta-galactosidase and beta-hexosaminidase activities, respectively.

Alpha-galactosidase = biological target: T2, Alpha-galactosidase (Homo sapiens, UniProt P06280); test: Glycosidase specificity panel (Example 4); type: biochemical
T2 sequence (P06280 32-429): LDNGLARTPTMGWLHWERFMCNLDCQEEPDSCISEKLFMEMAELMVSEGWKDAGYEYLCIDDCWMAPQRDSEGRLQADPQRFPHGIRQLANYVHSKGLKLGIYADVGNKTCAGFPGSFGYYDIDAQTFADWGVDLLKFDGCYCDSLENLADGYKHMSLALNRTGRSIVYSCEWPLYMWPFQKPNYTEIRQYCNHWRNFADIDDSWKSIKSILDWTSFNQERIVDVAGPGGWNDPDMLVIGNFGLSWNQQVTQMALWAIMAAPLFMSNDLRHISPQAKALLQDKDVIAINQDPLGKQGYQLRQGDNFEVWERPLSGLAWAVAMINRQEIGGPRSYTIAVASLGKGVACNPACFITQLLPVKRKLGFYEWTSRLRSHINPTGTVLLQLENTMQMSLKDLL
From the text: (§2) IC50 values indicated in table 1 are the concentrations of (2R,3R,4S,5R)-3-hydroxymethyl-2-pentylpiperidine-4,5-diol compound required to inhibit by half the different enzymatic activities.

Beta-glucuronidase = biological target: T3, Beta-glucuronidase (Homo sapiens, UniProt P08236); test: Glycosidase specificity panel (Example 4); type: biochemical
T3 sequence (P08236 23-651): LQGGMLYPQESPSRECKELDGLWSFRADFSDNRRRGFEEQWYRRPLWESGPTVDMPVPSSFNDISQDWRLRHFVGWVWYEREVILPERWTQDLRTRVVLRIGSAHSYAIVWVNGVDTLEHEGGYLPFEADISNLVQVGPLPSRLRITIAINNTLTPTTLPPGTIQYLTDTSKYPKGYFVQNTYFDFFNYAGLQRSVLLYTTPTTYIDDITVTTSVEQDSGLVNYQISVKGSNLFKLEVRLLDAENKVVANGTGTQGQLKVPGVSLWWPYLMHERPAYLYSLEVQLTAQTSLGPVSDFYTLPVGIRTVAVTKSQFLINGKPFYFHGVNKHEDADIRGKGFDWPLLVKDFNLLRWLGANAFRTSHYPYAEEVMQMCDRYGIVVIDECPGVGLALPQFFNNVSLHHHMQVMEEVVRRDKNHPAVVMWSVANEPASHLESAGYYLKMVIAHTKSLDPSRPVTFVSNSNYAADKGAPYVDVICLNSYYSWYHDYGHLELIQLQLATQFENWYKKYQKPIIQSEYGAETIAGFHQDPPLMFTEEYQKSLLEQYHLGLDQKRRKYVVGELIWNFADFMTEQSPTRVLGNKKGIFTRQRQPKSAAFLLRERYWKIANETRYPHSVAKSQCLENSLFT
From the text: as §2

Beta-hexosaminidase [4] = test: Beta-hexosaminidase activity in fibroblasts of GM1-gangliosidosis patients (Example 6); type: cell-based, human; conditions: GM02439 and GM05335 fibroblasts, 2 µM, 4 days
Protocol: GM02439 and GM05335 fibroblasts (Coriell Institute) were cultured for 4 days in the presence or the absence of 2 µM of (2R,3R,4S,5R)-3-hydroxymethyl-2-pentylpiperidine-4,5-diol. Cells were lysed in 100 mM sodium citrate, pH 4.8, supplemented with 1% Triton X-100 and protease inhibitors. B eta-galactosidase and beta-hexosaminidase activities were then determined in the cell lysates using fluorescence and colorimetric assays, respectively. Results presented are means of 4 values obtained from independent cultures. Percent of deviation of each value is <30% from the mean. Hatched and empty bars: beta-galactosidase and beta-hexosaminidase activities, respectively.

Beta-galactosidase [5] = biological target: T1, Beta-galactosidase; test: Glycosidase specificity panel, beta-galactosidase from PBMC lysate (Example 4); type: biochemical
From the text: as §2

Beta-galactosidase [6] = biological target: T1, Beta-galactosidase; test: Prevention of heat denaturation of beta-galactosidase in PBMC lysate at 48°C (Example 5); type: biochemical
From the text: The capacity of a compound of protecting an enzyme from denaturation predicts to some extent its pharmacological chaperone activity, i.e. its capacity of restoring enzymatic activity in patient cells exposed to the compound. The Applicant has evaluated whether (2R,3R,4S,5R)-3-hydroxymethyl-2-pentylpiperidine-4,5-diol can prevent heat denaturation of human beta-galactosidase following a procedure described by Suzuki et al 2014.
Samples of human peripheral blood mononuclear cell lysate (2 x 10^6 cells) in phosphate buffer, pH 7.3, 0.5% Triton X-100 and protease inhibitors were incubated at 48°C for 0, 5, 10, 20, and 40 minutes in the presence of graded concentrations of (2R,3R,4S,5R)-3-hydroxymethyl-2-pentylpiperidine-4,5-diol. The samples were then diluted in citrate buffer, pH 4.3, and 0.25 mM of 4-methylumbelliferyl β-D-galactopyranoside. After an incubation of 17 hours at 37°C, the reaction was stopped by the addition of glycine 0.15 M, pH 10.2. Fluorescence was determined at 445 nm using an excitation wavelength at 365 nm. The tested concentrations of (2R,3R,4S,5R)-3-hydroxymethyl-2-pentylpiperidine-4,5-diol, are 20 µM (square), 2 µM (triangle), 0.2 µM (diamond), 0.02 µM (circle) and 0 µM (line).

Alpha-glucosidase = test: Glycosidase specificity panel (Example 4); type: biochemical, Human
From the text: as §2

Beta-hexosaminidase [7] = test: Glycosidase specificity panel (Example 4); type: biochemical, Human
From the text: as §2

Alpha-hexosaminidase = test: Glycosidase specificity panel (Example 4); type: biochemical, Human
From the text: as §2

Beta-glucosidase = test: Glycosidase specificity panel (Example 4); type: biochemical, Human
From the text: as §2

[8] = human PBMC lysate, pH 7.3, 2 hours at 37°C, Example 3, read-out: IC50

CCCCCC1NCC(O)[C@@H](O)[C@H]1CO (stereo in doubt) [(2R,3R,4S,5S)-3-hydroxymethyl-2-pentylpiperidine-4,5-diol]
fold less potent than (2R,3R,4S,5R) isomer (Beta-galactosidase [1]; Example 3): 150 fold | IC50 (Beta-galactosidase [1]; [8]): 1.5 µM

CCCCCCCCCN1CC(O)C(O)C(CO)C1 (stereo not drawn) [N-nonyl-4-epi-isofagomine]
fold less inhibitory on human beta-galactosidase than 4-epi-isofagomine (Beta-galactosidase [2]): 140 fold | IC50 (Beta-galactosidase [2]): 10 µM

CCCCC[C@H]1NC[C@@H](O)[C@@H](O)[C@H]1CO [(2R,3R,4S,5R)-3-Hydroxymethyl-2-pentylpiperidine-4,5-diol]
increase of mutated beta-galactosidase activity relative to untreated cells ([3]; infantile GM1-gangliosidosis cell line GM05335, 2 µM): 19 fold | increase of mutated beta-galactosidase activity relative to untreated cells ([3]; juvenile GM1-gangliosidosis cell line GM02439, 2 µM): 6.5 fold | IC50 (Alpha-galactosidase): 150 µM | IC50 (Beta-glucuronidase): > 160 µM | increase of the beta-hexosaminidase activity (Beta-hexosaminidase [4]): no increase | IC50 (Beta-galactosidase [5]): 0.02 µM | activity at 0.02 µM (Beta-galactosidase [6]; 0 minute): 100% | activity at 0.02 µM (Beta-galactosidase [6]; 5 minutes): 70% | activity at 0.02 µM (Beta-galactosidase [6]; 10 minutes): 46% | activity at 0.02 µM (Beta-galactosidase [6]; 20 minutes): 23% | activity at 0.02 µM (Beta-galactosidase [6]; 40 minutes): 11% | activity at 0.2 µM (Beta-galactosidase [6]; 0 minute): 100% | activity at 0.2 µM (Beta-galactosidase [6]; 5 minutes): 81% | activity at 0.2 µM (Beta-galactosidase [6]; 10 minutes): 72% | activity at 0.2 µM (Beta-galactosidase [6]; 20 minutes): 56% | activity at 0.2 µM (Beta-galactosidase [6]; 40 minutes): 33% | time to loss of 50% of the beta-galactosidase activity (Beta-galactosidase [6]; 2 µM): > 40 min | activity at 2 µM (Beta-galactosidase [6]; 2 µM, 0 minute): 100% | activity at 2 µM (Beta-galactosidase [6]; 2 µM, 5 minutes): 82% | activity at 2 µM (Beta-galactosidase [6]; 2 µM, 10 minutes): 84% | activity at 2 µM (Beta-galactosidase [6]; 2 µM, 20 minutes): 73% | activity at 2 µM (Beta-galactosidase [6]; 2 µM, 40 minutes): 70% | time to loss of 50% of the beta-galactosidase activity (Beta-galactosidase [6]; 20 µM): > 40 min | activity at 20 µM (Beta-galactosidase [6]; 20 µM, 0 minute): 100% | activity at 20 µM (Beta-galactosidase [6]; 20 µM, 5 minutes): 93% | activity at 20 µM (Beta-galactosidase [6]; 20 µM, 10 minutes): 95% | activity at 20 µM (Beta-galactosidase [6]; 20 µM, 20 minutes): 85% | activity at 20 µM (Beta-galactosidase [6]; 20 µM, 40 minutes): 87% | IC50 (Beta-galactosidase [1]; [8]): 0.01 µM | IC50 (Alpha-glucosidase): > 160 µM | IC50 (Beta-hexosaminidase [7]): > 160 µM | IC50 (Alpha-hexosaminidase): > 160 µM | IC50 (Beta-glucosidase): 60 µM

OC[C@H]1CNC[C@@H](O)[C@H]1O [4-epi-isofagomine]
IC50 (Beta-galactosidase [2]): 0.07 µM | IC50 (Beta-galactosidase [1]): 0.8 µM
